Laboratory results as given in ChEMBL document CHEMBL1140229, “Flavanones from the stem bark of Erythrina abyssinica” (Bioorg Med Chem, 2008).
The source made the active and inactive calls. The rule behind the calls is not given here.

molecular target: T1, Tyrosine-protein phosphatase non-receptor type 1 (Homo sapiens) (UniProt P18031); test: (§1) Inhibition of human recombinant PTP1B
T1 sequence (whole entry): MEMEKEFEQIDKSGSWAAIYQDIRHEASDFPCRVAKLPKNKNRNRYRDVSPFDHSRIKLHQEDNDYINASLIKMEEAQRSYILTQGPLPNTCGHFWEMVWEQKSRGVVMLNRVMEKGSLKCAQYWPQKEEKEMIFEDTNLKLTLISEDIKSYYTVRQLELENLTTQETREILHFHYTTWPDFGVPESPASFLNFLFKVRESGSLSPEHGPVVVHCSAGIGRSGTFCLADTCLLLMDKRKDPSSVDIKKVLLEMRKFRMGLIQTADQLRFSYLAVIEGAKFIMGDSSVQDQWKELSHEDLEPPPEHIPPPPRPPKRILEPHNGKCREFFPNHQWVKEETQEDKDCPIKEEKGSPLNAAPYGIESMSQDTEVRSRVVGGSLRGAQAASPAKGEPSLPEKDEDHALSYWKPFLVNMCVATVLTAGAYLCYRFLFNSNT

| SMILES | Activity |
| --- | --- |
| O=C1C[C@@H](c2ccc(O)cc2)Oc2cc(O)cc(O)c21 | inactive |
| O=C1C[C@@H](c2ccc(O)cc2)Oc2cc(O)ccc21 | inactive |

molecular target: T2, Tyrosine-protein phosphatase non-receptor type 1 (Homo sapiens, UniProt P18031); test: as §1
T2 sequence (P18031 whole entry): T1 sequence (whole entry)

| SMILES | IC50 [µM] |
| --- | --- |
| CC1(C)C=Cc2cc([C@@H]3CC(=O)c4c(O)cc(O)cc4O3)c3c(c2O1)OC(C)(C)C=C3 | > 60 |
| COc1c(/C=C/C(C)(C)O)cc([C@@H]2CC(=O)c3c(O)cc(O)cc3O2)cc1CC=C(C)C [BURTTINONE] | 18.9 |
| CC(C)=CCc1c([C@@H]2CC(=O)c3c(O)cc(O)cc3O2)cc2c(c1O)OC(C)(C)C(O)C2O (some centres undefined) | 18.2 |
| COc1cc([C@@H]2CC(=O)c3c(O)cc(O)cc3O2)cc2c1OC(C)(C)C(O)C2 (some centres undefined) | 18.2 |
| CC(C)=CCc1cc([C@@H]2CC(=O)c3c(O)cc(O)cc3O2)cc2c1OC(C)(C)C(O)C2 (some centres undefined) | 14.9 |
| CCCCCCCCCCCCCCCC(=O)C1=C(O)[C@@H](CO)OC1=O | 4.7 |
| CC1(C)Oc2c(O)cc([C@@H]3CC(=O)c4c(O)cc(O)cc4O3)cc2C[C@@H]1O [SIGMOIDIN D] | > 60 |
| CC1(C)Oc2c(O)cc([C@@H]3CC(=O)c4ccc(O)cc4O3)cc2CC1O (some centres undefined) | > 60 |
| CC1(C)Oc2c(O)cc([C@@H]3CC(=O)c4ccc(O)cc4O3)cc2C(O)C1O (some centres undefined) | > 60 |
| COc1cc([C@@H]2CC(=O)c3c(O)cc(O)cc3O2)cc2c1OC(C)(CO)C=C2 (some centres undefined) | 17.9 |
| CC(C)=CCc1cc([C@@H]2CC(=O)c3c(O)cc(O)cc3O2)cc2c1OC(C)(C)C(O)C2O (some centres undefined) | 19 |
| CC1(CO)C=Cc2cc([C@@H]3CC(=O)c4c(O)cc(O)cc4O3)cc(O)c2O1 (some centres undefined) | > 60 |
| CC1(C)C(C2CC(=O)c3ccccc3O2)=C(O)C(O)=C2OC(O)C(O)C(O)C21 (centres undefined) [SIGMOIDIN G] | > 60 |
| CC1(C)CC(=O)c2cc([C@@H]3CC(=O)c4c(O)cc(O)cc4O3)cc(O)c2O1 | > 60 |
| C=C(C)/C=C/c1cc([C@@H]2CC(=O)c3c(O)cc(O)cc3O2)cc(CC=C(C)C)c1OC [BURTTINONEDEHYDRATE] | 21.6 |
| CC1(C)Oc2ccc([C@@H]3CC(=O)c4c(O)cc(O)cc4O3)cc2C(O)C1O (some centres undefined) | > 60 |
| CC(C)=CCc1c([C@@H]2CC(=O)c3c(O)cc(O)cc3O2)cc(O)c2c1C=CC(C)(C)O2 | 13.9 |
